pEC50: −log10 of the molar value. Where two headings read alike, the source gives them in different places.
Assays:
GPR139 = target: T1, GPR139 (Homo sapiens, UniProt Q6DWJ6); test: GPR139 Agonist titration / agonist counterscreen assay (calcium detection, HEK-GPR139 cells); format: cell-based; design: expressed in transfected cells; host or cells: HEK Aequorin cells, Maxcyte transient transfection; settings: GPR139 Agonist Activity; for Averaged Max % Response (±St. Dev.): activity relative to known control; for pEC50: read-out: EC50
T1 sequence (Q6DWJ6 1-353): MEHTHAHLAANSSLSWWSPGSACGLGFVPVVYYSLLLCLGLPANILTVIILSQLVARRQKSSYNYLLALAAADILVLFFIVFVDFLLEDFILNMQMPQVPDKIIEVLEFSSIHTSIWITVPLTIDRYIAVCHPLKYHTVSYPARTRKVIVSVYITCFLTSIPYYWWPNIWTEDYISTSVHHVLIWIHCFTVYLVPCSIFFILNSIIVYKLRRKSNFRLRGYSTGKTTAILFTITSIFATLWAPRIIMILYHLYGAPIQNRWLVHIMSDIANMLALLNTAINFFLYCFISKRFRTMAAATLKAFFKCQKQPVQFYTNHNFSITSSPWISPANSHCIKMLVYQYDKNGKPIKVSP
Description: GPR activity was assessed using a calcium detection assay. […] Negative control samples were treated with DMSO. […] Intracellular calcium was measured using Calcium 5.

parental HEK cells = test: HEK parental Agonist Counterscreen Assay (non-transfected cells); format: cell-based; settings: for Lipophilic Efficiency (logD) / Lipophilic Efficiency (logP) / Averaged Max % Response (±St. Dev.): HEK Agonist Activity section; for Averaged Max % Response (±St. Dev.): activity relative to known control; for pEC50: HEK Agonist Activity section of Table 4 (parental HEK counterscreen)
Text: The high control for the agonist counterscreen was Forskolin not acetylcholine.

SMILES | Averaged Max % Response (±St. Dev.) (GPR139) | Lipophilic Efficiency (logD) (GPR139; based on logD) | Lipophilic Efficiency (logP) (GPR139; based on logP) | Hill Slope (GPR139; fitted dose-response curve) | Efficiency Ligand (GPR139; ligand efficiency) | Lipophilic Efficiency (logD) (parental HEK cells) | Lipophilic Efficiency (logP) (parental HEK cells) | Efficiency Ligand (GPR139) | Hill Slope (GPR139) | Lipophilic Efficiency (logD) (GPR139) | Lipophilic Efficiency (logP) (GPR139) | pEC50 (GPR139; HEK-GPR139 cells) | pEC50 (GPR139; values printed in E-notation without unit) | Averaged Max % Response (±St. Dev.) (parental HEK cells) | pEC50 (parental HEK cells; Homo sapiens, HEK293) | pEC50 (parental HEK cells)
C=C1C(CC(=C)C2Cc3ccc4ccccc4c3C2)=CC(c2ccccc2)=CC1C (stereo not shown) [SR-00000002785] | 80.59 ± 9.85% | 4.66 | 4.66 | 0.95 | 0.32 | 2.62 | 2.62 |  |  |  |  |  |  | −10.50 ± 3.98% | < 4.85 | 
CN(C)CCOc1cc(-c2cn[nH]c2)ccc1NC(=O)C1COc2ccc(F)cc2C1.O=C(O)C(F)(F)F.O=C(O)C(F)(F)F (stereo not shown) [SR-00000004118] | 94.30 ± 8.24% |  |  | 1.08 |  |  |  |  |  |  |  |  |  | 13.55 ± 13.03% |  | < 4.85
CN(C)CCOc1cc(NC(=O)C2COc3ccccc3C2)ccc1-c1cn[nH]c1.O=C(O)C(F)(F)F.O=C(O)C(F)(F)F (stereo not shown) [SR-00000004123] | 79.85 ± 11.38% |  |  |  |  | 3.26 | 1.93 | 0.28 | 0.37 | 4.48 | 3.15 | 6.07 |  | 3.68 ± 4.29% |  | < 4.85
CCCCCc1cc(C2=CCC=C2)ccc1CC(=O)C1CCc2ccccc2C1 (stereo not shown) [SR-00000004451] | 92.93 ± 0.53% | 6.38 | 4.33 | 0.70 | 0.33 | 4.36 | 2.31 |  |  |  |  |  |  | 3.04 ± 3.40% | < 4.85 | 

Further lines, with some results ahead:

Averaged Max % Response (±St. Dev.) (GPR139) | Lipophilic Efficiency (logD) (GPR139; based on logD) | Lipophilic Efficiency (logP) (GPR139; based on logP) | Hill Slope (GPR139; fitted dose-response curve) | Efficiency Ligand (GPR139; ligand efficiency) | Lipophilic Efficiency (logD) (parental HEK cells) | Lipophilic Efficiency (logP) (parental HEK cells) | Efficiency Ligand (GPR139) | Hill Slope (GPR139) | Lipophilic Efficiency (logD) (GPR139) | Lipophilic Efficiency (logP) (GPR139) | pEC50 (GPR139; HEK-GPR139 cells) | pEC50 (GPR139; values printed in E-notation without unit) | SMILES | Averaged Max % Response (±St. Dev.) (parental HEK cells) | pEC50 (parental HEK cells; Homo sapiens, HEK293) | pEC50 (parental HEK cells)
97.54 ± 11.30% |  |  |  |  | 2.04 | 1.13 | 0.34 | 1.48 | 3.23 | 2.32 | 6.03 |  | N[C@H](Cc1ccccc1Cl)c1nc2ccc(-c3ccncc3)cc2[nH]1.O=C(O)C(F)(F)F.O=C(O)C(F)(F)F [SR-00000003277] | 29.67 ± 5.05% |  | < 4.85
72.99 ± 14.39% |  |  |  |  | 3.65 | 2.98 | 0.34 | 0.72 | 4.84 | 4.17 | 6.04 |  | Cl.Cl.Nc1[nH]ncc1-c1ccc(NC(=O)[C@H](N)Cc2cccc(F)c2)cc1 [SR-00000004378] | −19.97 ± 10.80% |  | < 4.85
89.55 ± 3.66% |  |  |  |  | 1.65 | 1.64 | 0.35 | 0.90 | 3.12 | 3.11 | 6.32 |  | O=C(Nc1ccc(-c2c[nH]cn2)cc1)C1COc2ccc(F)cc2C1 (stereo not shown) [SR-00000004710] | −8.04 ± 14.30% | < 4.85 | 
80.15 ± 4.78% | 4.08 | 4.08 | 0.64 | 0.39 | 2.23 | 2.23 |  |  |  |  |  | 6.70 | COc1cccc(CNC(=O)Nc2ccc(-c3cn[nH]c3)cc2)c1 [SR-00000005253] | −10.69 ± 5.73% | < 4.85 | 
86.84 ± 8.43% |  |  |  |  | 1.56 | 1.56 | 0.40 | 0.94 | 3.26 | 3.26 | 6.55 |  | Cc1cccc(CNC(=O)Nc2ccc(-c3cn[nH]c3)cc2)c1.O=C(O)C(F)(F)F [SR-00000005301] | 8.29 ± 4.70% |  | < 4.85

Source: US20250099420A1, “SMALL MOLECULE MODULATORS OF GPR139 COMPLEX” (University of Florida Research Foundation, Incorporated, priority 2022, published 2025)
